# From paper PMC12234328, “A naphthalimide derivative exerts potent antiplatelet and antithrombotic activities without a bleeding tendency” (Frontiers in Pharmacology, 2025)
# What was measured:
# [1] = tested on: FeCl3-induced thrombosis in mesenteric artery; experiment: FeCl3-induced mesenteric artery thrombosis in mice; type: in vivo; conditions: 1.2 mg/kg i.v., 30% FeCl3, relative to DMSO group
# Method: Mice were anesthetized with an oxygen–air mixture containing 3% isoflurane at a gas flow rate of 1.5–2 L/min. To label platelets, they were injected with the fluorescent dye rhodamine 6G (0.6 mg/kg). 10 min before FeCl3 treatment, mice were intravenously administered DMSO (1.1 g/kg, solvent control), compound 6 (1.2 mg/kg), or aspirin (20 mg/kg, positive control). The mesenteric arteries were surgically exposed and injured by applying a filter paper saturated with 30% FeCl3 for 5 min to induce thrombosis. Thrombus formation was then continuously monitored using a fluorescence microscope (Olympus, Tokyo, Japan).
# FIGURE 4 Effects of compound 6 on collagen/epinephrine-induced pulmonary thrombosis and FeCl3-induced thrombosis in mesenteric artery. Mice were intravenously administered with DMSO (solvent control), compound 6 (1.2 mg/kg), or aspirin (20 mg/kg, positive control) for 10 min (A) Mice were injected with collagen/epinephrine to induce pulmonary embolism, which was detected through staining with Evans blue (left panel). The survival rate was recorded for 24 h (right panel). Data are presented as means ± SEM (n = 6). **p < 0.01 compared with the sham group. #p < 0.05 compared with the DMSO (solvent control) group. (B) FeCl3-induced thrombosis in mesenteric artery as observed under real-time fluorescent microscopy. […] Scale bar = 100 µm. […]
# [2] = tested on: human platelet suspensions stimulated with collagen; experiment: Collagen-induced platelet aggregation (turbidimetric, lumi-aggregometer); type: cell-based
# From the text: (§1) This study received approval from the Taipei Medical University–Joint Institutional Review Board (TMU-JIRB-No. N202003148) and adhered to the principles of the Declaration of Helsinki. Informed consent was obtained from all volunteers before their participation. Human platelets were washed and prepared according to previously established methods ([Lu et al., 2019]). Whole blood was collected from healthy participants who had not taken any medications, including nonsteroidal anti-inflammatory drugs or aspirin, in the preceding 2 weeks. The blood was drawn into polypropylene tubes containing an acid citrate–dextrose solution (9:1, v/v). After mixing, the samples were centrifuged at 120 g for 10 min. The upper layer of platelet-rich plasma was collected and supplemented with prostaglandin E1 and heparin. Following further centrifugation at 500 g for 10 min, the platelet pellets were washed twice. The platelets were then resuspended in Tyrode’s solution containing 3.5 mg/mL bovine serum albumin (B.S.A.) to create platelet suspensions. The final Ca^2+ concentration of the platelet suspensions (3.6 × 10^8 cells/mL) was 1 mM.
# Platelet aggregation was measured using a lumi-aggregometer (Payton, Scarborough, Canada) through the turbidimetric method ([Lu et al., 2019]). Human platelet suspensions (3.6 × 10^8 cells/mL) were treated with compound 6 (1–50 μM) or an isovolumetric solvent control (0.1% DMSO) for 3 min. Subsequently, various agonists were added and platelet aggregation was then recorded for an additional 6 min.
# FIGURE 2 Effects of compound 6 on human platelet aggregation triggered by various agonists. (A–C) Washed platelets (3.6 × 10^8 cells/mL) were treated with compound 6 (1–50 μM) or dimethyl sulfoxide (DMSO; solvent control) before adding 1 μg/mL collagen (A), 0.02 U/mL thrombin (B), and 1 μM U46619 (C). Panels A–C present the curve of platelet aggregation, and panel D presents the statistical analysis of panels A–C. Data (D) are presented as means ± SEM (n = 4). ###p < 0.001 compared with the DMSO group.
# [3] = tested on: human platelet suspensions stimulated with convulxin; experiment: Convulxin-induced platelet aggregation; type: cell-based; conditions: 10–50 μM, convulxin 4 ng/mL
# From the text: as §1
# Platelet aggregation was measured using a lumi-aggregometer (Payton, Scarborough, Canada) through the turbidimetric method ([Lu et al., 2019]). […] Subsequently, various agonists were added and platelet aggregation was then recorded for an additional 6 min. […]
smiles,measurement,setting,value
CCCCN1C(=O)c2cccc3c(NCCNC(=O)C45CC6CC(CC(C6)C4)C5)ccc(c23)C1=O [compound 6],Platelet accumulation on the injured vessels (rhodamine 6G-labeled platelets),[1],delayed platelet accumulation
same,"Antiplatelet effect at the same concentration, compound 6 versus compound 5","[2]; 5 μM, collagen 1 μg/mL, Supplementary Figure S1",better antiplatelet effects than compound 5
same,IC50,"[2]; Platelet, washed human platelets, 1 μg/mL collagen",~2500 nM
same,Potency in inhibiting collagen-induced platelet aggregation relative to compound 5,"[2]; comparison with ref Shih et al., 2021",twice as high
same,Effect on convulxin-induced platelet aggregation,[3],can inhibit convulxin-induced platelet aggregation
